Results taken from article PMC2581804, “Mycobacterium tuberculosis Glucosyl-3-Phosphoglycerate Synthase: Structure of a Key Enzyme in Methylglucose Lipopolysaccharide Biosynthesis” (PLoS ONE, 2008).

Molecular target: M. tuberculosis GpgS (glucosyl-3-phosphoglycerate synthase) (Mycobacterium tuberculosis, UniProt P9WMW9)
Sequence (P9WMW9 whole entry): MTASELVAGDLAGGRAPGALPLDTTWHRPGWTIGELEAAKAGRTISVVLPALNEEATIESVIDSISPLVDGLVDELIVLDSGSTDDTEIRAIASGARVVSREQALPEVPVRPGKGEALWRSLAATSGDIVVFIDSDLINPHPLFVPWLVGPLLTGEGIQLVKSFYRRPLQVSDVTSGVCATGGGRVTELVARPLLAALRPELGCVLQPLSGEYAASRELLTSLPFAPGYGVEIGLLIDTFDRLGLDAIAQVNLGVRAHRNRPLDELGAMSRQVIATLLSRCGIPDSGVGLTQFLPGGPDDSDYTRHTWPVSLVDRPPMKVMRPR

With O=C(O)[C@H](O)COP(=O)(O)O [3-phosphoglycerate] the “X-ray crystal structure of ternary complex, 2.7 A (co-crystallization)” value was “there is clear electron density for the carboxylate region of the bound 3-phosphoglycerate”.
